From paper PMC7764601 (Molecules, 2020)
Read-outs that look alike come from different tables or passages of the source. Marks after values point to notes of the source that are not given here.

Experiments:
mice [1] = experiment: “Writhing” test in mice (phenylbenzoquinone); format: in vivo; conditions: for Mean no. of writhing ± SEM: i.p.
Experimental: (§1) The experiments were carried out on male albino Swiss mice (body weight 18–26 g). All of the animals were housed at constant humidity (60%) and temperature (25 °C) and kept on a 12 h light/dark cycle. Animals were fed a standard pellet diet with free access to tap water. All procedures were conducted according to Animal Care and Use Committee guidelines, and approved by the Ethical Committee of Jagiellonian University, Kraków.
(§2) Control and experimental groups consisted of 6–8 animals each. The investigated compounds were administered intraperitoneally as a suspension in 0.5% methylcellulose in a constant volume of 10 mL/kg.
(§3) The statistical significance was calculated using a Student’s t-test. The ED50 values and their confidence limits were calculated according to the method of Litchfield and Wilcoxon.
(§4) Pain reactivity was measured in two tests: “hot plate” test (according to the method of Eddy and Leimbach) and “writhing” test in mice (according to Hendershot and Forsaith).
Then, after 25 min, the irritant (phenylbenzoquinone, 0.02% solution, ethanol-water, 5:95) was also administered intraperitoneally in a constant volume of 0.25 mL. Five min after the application of the irritant,a 10 min long period of observation started, in which the number of writhing episodes was counted.
The analgesic effect of individual doses was expressed in percent:(1) % Analgesic effect=100−∑ of writing incidents in experimental group/∑ of writhing incidents in control group×100

mice [2] = experiment: “Hot plate” test in mice; format: in vivo; conditions: for Time of Reaction to Pain Stimulus (s) ± SEM: hot plate, mice
Experimental: as §1, §2, §3, §4
Animals were placed individually on the metal plate, heated to 55 ± 1 °C. The latency time (s) to the pain reaction (licking of the hind paws or jumping) was recorded by a stop-watch. A cutoff time of 45 s was used to prevent tissue damage.

mice [3] = tested on: mice; parameters: method as in PMID 11234340, PMID 12484538, PMID 15652370; conditions: series 1, cited from earlier work
mice [4] = tested on: mice; parameters: method as in PMID 11234340, PMID 12484538, PMID 15652370; conditions: cited from earlier work; for % Inh. of locomotor activity: series 1; for ED50, influence on the locomotor activity: imides described previously (series 1)
mice [5] = conditions: compounds obtained previously (series 1 and 2); cited from earlier work
[6] = Mus musculus, ip, 0.5 h, read-out: Prolonged Time (%)

**Q.** Which ED50 (mice [1]; Mus musculus, ip, confidence limits in parentheses, read-out: ED50 (mg/kg) ± SEM, writhing test) does the source give for `CC(=O)Oc1ccccc1C(=O)O` [ASA, Acetylicacid, reference compound] here?
**A.** The ED50 was 39.1 mg/kg.

**Q.** What about the “Mean no. of writhing ± SEM” value (mice [1]; dose 30 mg/kg) of the same compound?
**A.** The value was 11.2 ± 2.1.

**Q.** And the “Mean no. of writhing ± SEM” value (mice [1]; dose 50 mg/kg)?
**A.** Its value is 8.5 ± 1.3.

**Q.** And the “Mean no. of writhing ± SEM” value (mice [1]; dose 100 mg/kg)?
**A.** Its value is 3.2 ± 1.1.

**Q.** And the change in vivo at 100 mg/kg (mice [2]; [6])?
**A.** Its change in vivo at 100 mg/kg is 11.7%.

**Q.** And the change in vivo at 200 mg/kg (mice [2]; [6])?
**A.** The change in vivo at 200 mg/kg was 35.2%.

**Q.** What about the change in vivo at 400 mg/kg (mice [2]; [6]) of the same compound?
**A.** Its change in vivo at 400 mg/kg is 116%.

**Q.** And the ED50 (mice [2]; Mus musculus, read-out: ED50, hot plate test)?
**A.** Its ED50 is 267 mg/kg.

**Q.** And the “Time of Reaction to Pain Stimulus (s) ± SEM” value (shortened to “Time of Reaction … (s) ± SEM”) (mice [2]; dose 100 mg/kg)?
**A.** Its value is 16.2 ± 4.9 s.

**Q.** And the “Time of Reaction … (s) ± SEM” value (mice [2]; dose 200 mg/kg)?
**A.** Its value is 19.6 ± 4.1 s.

**Q.** And the “Time of Reaction … (s) ± SEM” value (mice [2]; dose 400 mg/kg)?
**A.** Its value is 31.3 ± 1.2 s.

**Q.** Which “Thiopental Anesthesia % Prolong.” value (mice [3]; dose 25 mg/kg) does the source give for `COc1nc(C)cc2c1C(=O)N(CCCN1CCN(c3ccccc3)CC1)C2=O` [Compound 1H] here?
**A.** The value was 118%.

**Q.** And the “Thiopental Anesthesia % Prolong.” value (mice [3]; dose 50 mg/kg)?
**A.** The value was 194%.

**Q.** What about the “% Inh. of locomotor activity” value (mice [4]; dose 12.5 mg/kg) of the same compound?
**A.** The value was 47.67%.

**Q.** And the “% Inh. of locomotor activity” value (mice [4]; dose 25 mg/kg)?
**A.** The value was 53.84%.

**Q.** And the “% Inh. of locomotor activity” value (mice [4]; dose 50 mg/kg)?
**A.** Its value is 66.55%.

**Q.** And the “ED50, influence on the locomotor activity” value (“ED50, influence” below) (mice [4])?
**A.** Its value is 15.17 mg/kg.

**Q.** What about the “ED50, writhing test” value (mice [5]) of the same compound?
**A.** The value was 1.03 mg/kg.

**Q.** With `COc1nc(C)cc2c1C(=O)N(CN1CCN(c3ccccc3)CC1)C2=O` [Compound 1K] as the compound, how does the “Thiopental Anesthesia % Prolong.” value (mice [3]; dose 2.25 mg/kg) read?
**A.** The value was 134.1%.

**Q.** What about the “Thiopental Anesthesia % Prolong.” value (mice [3]; dose 4.5 mg/kg) of the same compound?
**A.** Its value is 199.1%.

**Q.** What about the “% Inh. of locomotor activity” value (mice [4]; dose 2.25 mg/kg) of the same compound?
**A.** The value was 49.23%.

**Q.** What about the “% Inh. of locomotor activity” value (mice [4]; dose 4.5 mg/kg) of the same compound?
**A.** The value was 61.77%.

**Q.** And the “ED50, influence” value (mice [4])?
**A.** Its value is 2.28 mg/kg.

**Q.** What about the “ED50, writhing test” value (mice [5]) of the same compound?
**A.** Its value is 2.55 mg/kg.

**Q.** With `COc1ccccc1N1CCN(CN2C(=O)c3cc(C)nc(OC)c3C2=O)CC1` [Compound 1L] as the compound, how does the “Thiopental Anesthesia % Prolong.” value (mice [3]; dose 12.5 mg/kg) read?
**A.** The value was 111.6%.

**Q.** What about the “Thiopental Anesthesia % Prolong.” value (mice [3]; dose 25 mg/kg) of the same compound?
**A.** The value was 133.2%.

**Q.** What about the “Thiopental Anesthesia % Prolong.” value (mice [3]; dose 50 mg/kg) of the same compound?
**A.** The value was 184.3%.

**Q.** And the “% Inh. of locomotor activity” value (mice [4]; dose 12.5 mg/kg)?
**A.** The value was 37.81%.

**Q.** And the “% Inh. of locomotor activity” value (mice [4]; dose 25 mg/kg)?
**A.** The value was 40.84%.

**Q.** And the “% Inh. of locomotor activity” value (mice [4]; dose 50 mg/kg)?
**A.** The value was 68.25%.

**Q.** And the “ED50, influence” value (mice [4])?
**A.** The value was 25.2 mg/kg.

**Q.** And the “ED50, writhing test” value (mice [5])?
**A.** Its value is 6.53 mg/kg.

**Q.** Which “Thiopental Anesthesia % Prolong.” value (mice [3]; dose 23 mg/kg) does the source give for `COc1nc(C)cc2c1C(=O)N(CCCCN1CCc3ccccc3C1)C2=O` [Compound 1N] here?
**A.** Its value is 100.0%.

**Q.** And the “Thiopental Anesthesia % Prolong.” value (mice [3]; dose 46 mg/kg)?
**A.** Its value is 286.5%.

**Q.** And the “% Inh. of locomotor activity” value (mice [4]; dose 46 mg/kg)?
**A.** Its value is 87.48 * %.

**Q.** And the “ED50, writhing test” value (mice [5])?
**A.** Its value is 0.72 mg/kg.

**Q.** Which “Thiopental Anesthesia % Prolong.” value (mice [3]; dose 50 mg/kg) does the source give for `COc1nc(C)cc2c1C(=O)N(CCCCN1CCN(c3ccccc3)CC1)C2=O` [Compound 1P] here?
**A.** The value was 140.25%.

**Q.** What about the “Thiopental Anesthesia % Prolong.” value (mice [3]; dose 100 mg/kg) of the same compound?
**A.** The value was 242.13%.

**Q.** And the “% Inh. of locomotor activity” value (mice [4]; dose 50 mg/kg)?
**A.** The value was 67.14%.

**Q.** What about the “% Inh. of locomotor activity” value (mice [4]; dose 100 mg/kg) of the same compound?
**A.** Its value is 86.10%.

**Q.** And the “ED50, writhing test” value (mice [5])?
**A.** The value was 4.5 mg/kg.
